These compounds were tested against T1, CCR2 (Homo sapiens, UniProt P41597) (assay: MCP-1 Receptor Binding Assay in THP-1 Cells). Settings: 0.5 nM 125I labeled MCP-1, 2 hours at 30° C., read-out: Inhibition of MCP-1 Binding IC50 CCR2 Binding.
T1 construct: host or cells: THP-1 human monocytic cells
T1 sequence (P41597 1-360 isoform P41597-2): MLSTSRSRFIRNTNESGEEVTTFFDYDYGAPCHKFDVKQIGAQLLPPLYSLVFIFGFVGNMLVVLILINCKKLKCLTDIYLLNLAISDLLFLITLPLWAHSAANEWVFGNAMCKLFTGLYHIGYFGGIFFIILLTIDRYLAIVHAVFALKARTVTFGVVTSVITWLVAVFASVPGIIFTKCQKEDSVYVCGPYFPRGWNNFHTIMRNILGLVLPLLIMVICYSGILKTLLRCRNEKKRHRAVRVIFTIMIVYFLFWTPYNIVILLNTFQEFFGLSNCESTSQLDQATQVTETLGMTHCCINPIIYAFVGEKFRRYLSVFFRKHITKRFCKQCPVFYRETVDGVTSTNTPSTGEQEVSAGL
Method: MCP-1 Receptor Binding Assay in THP-1 Cells
Human monocytic cell line THP-1 cells were obtained from American Type Culture Collection (Manassas, Va., USA). […] The cell density was maintained […].
1 μM cold MCP-1 was used for nonspecific binding.

Point of comparison: `CS(=O)(=O)c1cccc(C2CCC(N3CC(NC(=O)CNC(=O)c4cccc(C(F)(F)F)c4)C3)CC2)c1` (single isomer, unassigned) [Example 14a, N-({1-[4-(3-Methanesulfonyl-phenyl)-cyclohexyl]-azetidin-3-ylcarbamoyl}-methyl)-3-trifluoromethyl-benzamide], IC50 440 nM. Against it:
- COC(=O)COc1ccc(C2CCC(N3CC(NC(=O)CNC(=O)c4cccc(C(F)(F)F)c4)C3)CC2)cc1 (centres unmarked) [Example 43] — 12-fold lower, 38 nM
- Nc1cc(C(=O)NCC(=O)NC2CN(C3CCC(c4ccccc4)CC3)C2)cc(C(F)(F)F)c1 (centres unmarked) [Example 79, 3-Amino-N-{[1-(4-phenyl-cyclohexyl)-azetidin-3-ylcarbamoyl]-methyl}-5-trifluoromethyl-benzamide] — 19-fold lower, 23 nM
- COc1cccc(C2(N)CCC(N3CC(NC(=O)CNC(=O)c4cccc(C(F)(F)F)c4)C3)CC2)c1 (single isomer, unassigned) [Example 87a, N-({1-[4-Amino-4-(3-methoxy-phenyl)-cyclohexyl]-azetidin-3-ylcarbamoyl}-methyl)-3-trifluoromethyl-benzamide] — within 1.5-fold, 330 nM
- NC(=O)Nc1ccc(C2CCC(N3CC(NC(=O)CNC(=O)c4cccc(C(F)(F)F)c4)C3)CC2)cc1 (centres unmarked) [Example 19, 3-Trifluoromethyl-N-({1-[4-(4-ureido-phenyl)-cyclohexyl]-azetidin-3-ylcarbamoyl}-methyl)-benzamide] — 3.4-fold lower, 130 nM
- CCOC(=O)Cc1ccc(C2CCC(N3CC(NC(=O)CNC(=O)c4cccc(C(F)(F)F)c4)C3)CC2)cc1 (single isomer, unassigned) [Example 24a, [4-(4-{3-[2-(3-Trifluoromethyl-benzoylamino)-acetylamino]-azetidin-1-yl}-cyclohexyl)-phenyl]-acetic acid ethyl ester] — within 1.5-fold, 340 nM
- CN(C)c1ccc(C2(O)CCC(N3CC(NC(=O)CNC(=O)c4cccc(C(F)(F)F)c4)C3)CC2)cc1 (single isomer, unassigned) [Example 54a, N-({1-[4-(4-Dimethylamino-phenyl)-4-hydroxy-cyclohexyl]-azetidin-3-ylcarbamoyl}-methyl)-3-trifluoromethyl-benzamide] — 7.1-fold lower, 62 nM
- CCn1c(=O)oc2ccc(C3(O)CCC(N4CC(NC(=O)CNC(=O)c5cccc(C(F)(F)F)c5)C4)CC3)cc21 (single isomer, unassigned) [Example 65a, N-({1-[4-(3-Ethyl-2-oxo-2,3-dihydro-benzooxazol-5-yl)-4-hydroxy-cyclohexyl]-azetidin-3-ylcarbamoyl}-methyl)-3-trifluoromethyl-benzamide] — 2.9-fold lower, 150 nM
- CS(=O)(=O)Nc1cccc(C2(O)CCC(N3CC(NC(=O)CNC(=O)c4cccc(C(F)(F)F)c4)C3)CC2)c1 (centres unmarked) [Example 61, N-({1-[4-Hydroxy-4-(3-methanesulfonylamino-phenyl)-cyclohexyl]-azetidin-3-ylcarbamoyl}-methyl)-3-trifluoromethyl-benzamide] — 3.4-fold lower, 130 nM
- N=C(N)Cc1ccc(C2CCC(N3CC(NC(=O)CNC(=O)c4cccc(C(F)(F)F)c4)C3)CC2)cc1 (centres unmarked) [Example 22, N-({1-[4-(4-Carbamimidoylmethyl-phenyl)-cyclohexyl]-azetidin-3-ylcarbamoyl}-methyl)-3-trifluoromethyl-benzamide] — 20-fold higher, 8600 nM
- CCOC(=O)c1cccc(C2CCC(N3CC(NC(=O)CNC(=O)c4cccc(C(F)(F)F)c4)C3)CC2)c1 (single isomer, unassigned) [Example 11a, 3-(4-{3-[2-(3-Trifluoromethyl-benzoylamino)-acetylamino]-azetidin-1-yl}-cyclohexyl)-benzoic acid ethyl ester] — 3.3-fold lower, 135 nM
- N#Cc1cccc(C2(O)CCC(N3CC(NC(=O)CNC(=O)c4cccc(C(F)(F)F)c4)C3)CC2)c1 (single isomer, unassigned) [Example 48a, N-({1-[4-(3-Cyano-phenyl)-4-hydroxy-cyclohexyl]-azetidin-3-ylcarbamoyl}-methyl)-3-trifluoromethyl-benzamide] — within 1.5-fold, 413 nM
- CN(C)CCOc1ccc(C2CCC(N3CC(NC(=O)CNC(=O)c4cccc(C(F)(F)F)c4)C3)CC2)cc1 (centres unmarked) [Example 41, N-[(1-{4-[4-(2-Dimethylamino-ethoxy)-phenyl]-cyclohexyl}-azetidin-3-ylcarbamoyl)-methyl]-3-trifluoromethyl-benzamide] — 2.8-fold lower, 160 nM
- NC(=O)c1ccc(C2(O)CCC(N3CC(NC(=O)CNC(=O)c4cccc(C(F)(F)F)c4)C3)CC2)cc1 (single isomer, unassigned) [Example 55a, N-({1-[4-(4-benzamide)-4-hydroxy-cyclohexyl]-azetidin-3-ylcarbamoyl}-methyl)-3-trifluoromethyl-benzamide] — 12-fold higher, 5300 nM
- CCc1cccc(C2(O)CCC(N3CC(NC(=O)CNC(=O)c4cccc(C(F)(F)F)c4)C3)CC2)c1 (centres unmarked) [Example 52, N-({1-[4-(3-Ethyl-phenyl)-4-hydroxy-cyclohexyl]-azetidin-3-ylcarbamoyl}-methyl)-3-trifluoromethyl-benzamide] — 2.8-fold lower, 160 nM
- O=C(CNC(=O)c1cc(F)cc(C(F)(F)F)c1)NC1CN(C2CCC(c3ccccc3)CC2)C1 (single isomer, unassigned) [Example 76a, 3-Fluoro-N-{[1-(4-phenyl-cyclohexyl)-azetidin-3-ylcarbamoyl]-methyl}-5-trifluoromethyl-benzamide] — 2-fold lower, 220 nM
- CC(C)(C)OC(=O)Nc1ccc(C2(O)CCC(N3CC(NC(=O)CNC(=O)c4cccc(C(F)(F)F)c4)C3)CC2)cc1 (centres unmarked) [Example 50, [4-(1-Hydroxy-4-{3-[2-(3-trifluoromethyl-benzoylamino)-acetylamino]-azetidin-1-yl}-cyclohexyl)-phenyl]-carbamic acid tert-butyl ester] — 1.9-fold lower, 230 nM
- O=C(CNC(=O)c1ccc(NCCO)c(C(F)(F)F)c1)NC1CN(C2CCC(c3ccccc3)CC2)C1 (centres unmarked) [Example 72, 4-(2-Hydroxy-ethylamino)-N-{[1-(4-phenyl-cyclohexyl)-azetidin-3-ylcarbamoyl]-methyl}-3-trifluoromethyl-benzamide] — within 1.5-fold, 400 nM
- O=C(CNC(=O)c1cccc(C(F)(F)F)c1)NC1CN(C2CCC(c3ccc4nc[nH]c4c3)CC2)C1 (single isomer, unassigned) [Example 20a, N-({1-[4-(3H-Benzoimidazol-5-yl)-cyclohexyl]-azetidin-3-ylcarbamoyl}-methyl)-3-trifluoromethyl-benzamide] — 16-fold lower, 27 nM
- Cn1cnc2ccc(C3(O)CCC(N4CC(NC(=O)CNC(=O)c5cccc(C(F)(F)F)c5)C4)CC3)cc21 (centres unmarked) [Example 64, N-({1-[4-Hydroxy-4-(3-methyl-3H-benzoimidazol-5-yl)-cyclohexyl]-azetidin-3-ylcarbamoyl}-methyl)-3-trifluoromethyl-benzamide] — 4-fold lower, 110 nM
- CC(C)(C)NC(=O)Nc1ccc(C2CCC(N3CC(NC(=O)CNC(=O)c4cccc(C(F)(F)F)c4)C3)CC2)cc1 (centres unmarked) [Example 18, N-[(1-{4-[4-(3-tert-Butyl-ureido)-phenyl]-cyclohexyl}-azetidin-3-ylcarbamoyl)-methyl]-3-trifluoromethyl-benzamide] — higher, > 25000 nM
- Nc1ccc(C(=O)NCC(=O)NC2CN(C3CCC(c4ccccc4)CC3)C2)cc1C(F)(F)F (centres unmarked) [Example 74, 4-Amino-N-{[1-(4-phenyl-cyclohexyl)-azetidin-3-ylcarbamoyl]-methyl}-3-trifluoromethyl-benzamide] — 9.6-fold lower, 46 nM
- O=C(CNC(=O)c1ccc(F)c(C(F)(F)F)c1)NC1CN(C2CCC(c3ccccc3)CC2)C1 (single isomer, unassigned) [Example 71a, 4-Fluoro-N-{[1-(4-phenyl-cyclohexyl)-azetidin-3-ylcarbamoyl]-methyl}-3-trifluoromethyl-benzamide] — 2.2-fold lower, 200 nM
- O=C(CNC(=O)c1ccccc1)NC1CN(C2CCC(c3ccc4c(c3)OCO4)CC2)C1 (single isomer, unassigned) [Example 2a, N-{[1-(4-Benzo[1,3]dioxol-5-yl-cyclohexyl)-azetidin-3-ylcarbamoyl]-methyl}-benzamide] — within 1.5-fold, 390 nM
- O=C(CNC(=O)c1cccc(C(F)(F)F)c1)NC1CN(C2CCC(O)(c3ccc4nc[nH]c4c3)CC2)C1 (single isomer, unassigned) [Example 34a, N-({1-[4-(3H-Benzoimidazol-5-yl)-4-hydroxy-cyclohexyl]-azetidin-3-ylcarbamoyl}-methyl)-3-trifluoromethyl-benzamide] — within 1.5-fold, 310 nM
- O=C(CNC(=O)c1cccc(C(F)(F)F)c1)NC1CN(C2CCC(c3ccc(Cc4nn[nH]n4)cc3)CC2)C1 (centres unmarked) [Example 23, N-[(1-{4-[4-(2H-Tetrazol-5-ylmethyl)-phenyl]-cyclohexyl}-azetidin-3-ylcarbamoyl)-methyl]-3-trifluoromethyl-benzamide] — 1.7-fold lower, 260 nM
- Cc1cccc(C2(O)CCC(N3CC(NC(=O)CNC(=O)c4cccc(C(F)(F)F)c4)C3)CC2)c1 (centres unmarked) [Example 60, N-{[1-(4-Hydroxy-4-m-tolyl-cyclohexyl)-azetidin-3-ylcarbamoyl]-methyl}-3-trifluoromethyl-benzamide] — 4.4-fold lower, 100 nM
- COc1ccc(C2CCC(N3CC(NC(=O)CNC(=O)c4cccc(C(F)(F)F)c4)C3)CC2)cc1 (single isomer, unassigned) [Example 7a, N-({1-[4-(4-Methoxy-phenyl)-cyclohexyl]-azetidin-3-ylcarbamoyl}-methyl)-3-trifluoromethyl-benzamide] — 8.8-fold lower, 50 nM
- O=C(CNC(=O)c1cc(Br)cc(C(F)(F)F)c1)NC1CN(C2CCC(c3ccccc3)CC2)C1 (centres unmarked) [Example 77, 3-Bromo-N-{[1-(4-phenyl-cyclohexyl)-azetidin-3-ylcarbamoyl]-methyl}-5-trifluoromethyl-benzamide] — within 1.5-fold, 380 nM
